Values quoted from earlier work, collected in PMC8373983, “Effect of salinity on the zinc(II) binding efficiency of siderophore functional groups and implications for salinity tolerance mechanisms in barley” (Scientific Reports, 2021).
Like-named read-outs stand apart in the source and are kept apart here.

Experiments:
[1] = system: barley plants; settings: cited from earlier work
[2] = system: wild and cultivated barley plants; settings: 0.20 M NaCl; hydroponic, no initial micronutrient deficiencies; cited from earlier work

For `[Cl-].[Na+]` [NaCl], the “Zinc(II) content ratio” value ([1]; Leaves, Iranis, 0.08 M NaCl, pH 7.5, soil, 350 μmol/mol CO2) is given as 0.88, the “Zinc(II) content ratio” value ([1]; Leaves, Iranis, 0.08 M NaCl, pH 7.5, soil, 700 μmol/mol CO2) is given as 1.25 and the “Zinc(II) content ratio” value ([1]; Leaves, Iranis, 0.16 M NaCl, pH 7.5, soil, 350 μmol/mol CO2) is given as 0.94. The “Zinc(II) content ratio” value ([1]; Leaves, Iranis, 0.16 M NaCl, pH 7.5, soil, 700 μmol/mol CO2) was 1.19, the “Zinc(II) content ratio” value ([1]; Leaves, Iranis, 0.24 M NaCl, pH 7.5, soil, 350 μmol/mol CO2) was 1.35 and the “Zinc(II) content ratio” value ([1]; Leaves, Iranis, 0.24 M NaCl, pH 7.5, soil, 700 μmol/mol CO2) was 1.31. The “Zinc(II) content ratio” value ([1]; Roots, CM72, 0.15 M NaCl, pH 6.5, soil, Cr 0 μM) was 0.68, the “Zinc(II) content ratio” value ([1]; Roots, CM72, 0.15 M NaCl, pH 6.5, soil, Cr 10 μM) was 0.66 and the “Zinc(II) content ratio” value ([1]; Roots, CM72, 0.15 M NaCl, pH 6.5, soil, Cr 50 μM) was 0.82. The “Zinc(II) content ratio” value ([1]; Roots, Gairdner, 0.15 M NaCl, pH 6.5, soil, Cr 0 μM) was 0.51, the “Zinc(II) content ratio” value ([1]; Roots, Gairdner, 0.15 M NaCl, pH 6.5, soil, Cr 10 μM) was 0.56 and the “Zinc(II) content ratio” value ([1]; Roots, Gairdner, 0.15 M NaCl, pH 6.5, soil, Cr 50 μM) was 0.59. The “Zinc(II) content ratio” value ([1]; Roots, Iranis, 0.08 M NaCl, pH 7.5, soil, 350 μmol/mol CO2) was 1.08, the “Zinc(II) content ratio” value ([1]; Roots, Iranis, 0.08 M NaCl, pH 7.5, soil, 700 μmol/mol CO2) was 1.11 and the “Zinc(II) content ratio” value ([1]; Roots, Iranis, 0.16 M NaCl, pH 7.5, soil, 350 μmol/mol CO2) was 0.90. For the same molecule, the “Zinc(II) content ratio” value ([1]; Roots, Iranis, 0.16 M NaCl, pH 7.5, soil, 700 μmol/mol CO2) was 1.00, the “Zinc(II) content ratio” value ([1]; Roots, Iranis, 0.24 M NaCl, pH 7.5, soil, 350 μmol/mol CO2) was 0.97 and the “Zinc(II) content ratio” value ([1]; Roots, Iranis, 0.24 M NaCl, pH 7.5, soil, 700 μmol/mol CO2) was 0.96. The “Zinc(II) content ratio” value ([1]; Shoots, CM72, 0.15 M NaCl, pH 6.5, soil, Cr 0 μM) was 0.79, the “Zinc(II) content ratio” value ([1]; Shoots, CM72, 0.15 M NaCl, pH 6.5, soil, Cr 10 μM) was 0.82 and the “Zinc(II) content ratio” value ([1]; Shoots, CM72, 0.15 M NaCl, pH 6.5, soil, Cr 50 μM) was 0.98. The “Zinc(II) content ratio” value ([1]; Shoots, Gairdner, 0.15 M NaCl, pH 6.5, soil, Cr 0 μM) was 0.67, the “Zinc(II) content ratio” value ([1]; Shoots, Gairdner, 0.15 M NaCl, pH 6.5, soil, Cr 10 μM) was 0.72 and the “Zinc(II) content ratio” value ([1]; Shoots, Gairdner, 0.15 M NaCl, pH 6.5, soil, Cr 50 μM) was 0.97. The “Zinc(II) content ratio” value ([1]; Stems, Iranis, 0.08 M NaCl, pH 7.5, soil, 350 μmol/mol CO2) was 1.25, the “Zinc(II) content ratio” value ([1]; Stems, Iranis, 0.08 M NaCl, pH 7.5, soil, 700 μmol/mol CO2) was 0.95 and the “Zinc(II) content ratio” value ([1]; Stems, Iranis, 0.16 M NaCl, pH 7.5, soil, 350 μmol/mol CO2) was 0.81. For the same molecule, the “Zinc(II) content ratio” value ([1]; Stems, Iranis, 0.16 M NaCl, pH 7.5, soil, 700 μmol/mol CO2) was 0.95, the “Zinc(II) content ratio” value ([1]; Stems, Iranis, 0.24 M NaCl, pH 7.5, soil, 350 μmol/mol CO2) was 1.19 and the “Zinc(II) content ratio” value ([1]; Stems, Iranis, 0.24 M NaCl, pH 7.5, soil, 700 μmol/mol CO2) was 1.16. For the same molecule, the “Zinc(II) content ratio” value ([1]; Whole-plant, Bajwar-200, 0.04 M NaCl, pH 5.6, hydroponic) was 0.99, the “Zinc(II) content ratio” value ([1]; Whole-plant, Bajwar-200, 0.08 M NaCl, pH 5.6, hydroponic) was 1.03 and the “Zinc(II) content ratio” value ([1]; Whole-plant, Bajwar-200, 0.12 M NaCl, pH 5.6, hydroponic) was 1.18. The “Zinc(II) content ratio” value ([1]; Whole-plant, TARM-92, 0.09 M NaCl, pH 8.1, soil, seeds soaked in 0.5 mM Kinetin) was 1.12, the “Zinc(II) content ratio” value ([1]; Whole-plant, TARM-92, 0.09 M NaCl, pH 8.1, soil, seeds soaked in 2.0 mM GA3) was 2.00 and the “Zinc(II) content ratio” value ([1]; Whole-plant, TARM-92, 0.09 M NaCl, pH 8.1, soil, seeds soaked in H2O) was 1.07. For the same molecule, the “Zinc(II) content ratio” value ([1]; Whole-plant, TARM-92, 0.16 M NaCl, pH 8.1, soil, seeds soaked in 0.5 mM Kinetin) was 1.13, the “Zinc(II) content ratio” value ([1]; Whole-plant, TARM-92, 0.16 M NaCl, pH 8.1, soil, seeds soaked in 2.0 mM GA3) was 1.06 and the “Zinc(II) content ratio” value ([1]; Whole-plant, TARM-92, 0.16 M NaCl, pH 8.1, soil, seeds soaked in H2O) was 1.09. The “Zinc(II) content ratio” value ([1]; Whole-plant, TARM-92, 0.24 M NaCl, pH 8.1, soil, seeds soaked in 0.5 mM Kinetin) was 1.05, the “Zinc(II) content ratio” value ([1]; Whole-plant, TARM-92, 0.24 M NaCl, pH 8.1, soil, seeds soaked in 2.0 mM GA3) was 0.88 and the “Zinc(II) content ratio” value ([1]; Whole-plant, TARM-92, 0.24 M NaCl, pH 8.1, soil, seeds soaked in H2O) was 1.17. For the same molecule, the “increase in phytosiderophore release” value [2] was 2.5–3 times.
